This is an account of results in paper PMC11314295, “Discovery of Curcuminoids as Pancreatic Lipase Inhibitors from Medicine-and-Food Homology Plants” (Nutrients, 2024).

Structures are written as SMILES. ≈ marks a conversion by molar mass, not a printed value. Entries after “also recorded” stand apart in the source; their conditions may differ. A value given as a limit tells only on which side of the number the result lay.

Experiment [1] deals with T1, pancreatic lipase (Sus scrofa, UniProt P00591).
T1 sequence (P00591 1-450): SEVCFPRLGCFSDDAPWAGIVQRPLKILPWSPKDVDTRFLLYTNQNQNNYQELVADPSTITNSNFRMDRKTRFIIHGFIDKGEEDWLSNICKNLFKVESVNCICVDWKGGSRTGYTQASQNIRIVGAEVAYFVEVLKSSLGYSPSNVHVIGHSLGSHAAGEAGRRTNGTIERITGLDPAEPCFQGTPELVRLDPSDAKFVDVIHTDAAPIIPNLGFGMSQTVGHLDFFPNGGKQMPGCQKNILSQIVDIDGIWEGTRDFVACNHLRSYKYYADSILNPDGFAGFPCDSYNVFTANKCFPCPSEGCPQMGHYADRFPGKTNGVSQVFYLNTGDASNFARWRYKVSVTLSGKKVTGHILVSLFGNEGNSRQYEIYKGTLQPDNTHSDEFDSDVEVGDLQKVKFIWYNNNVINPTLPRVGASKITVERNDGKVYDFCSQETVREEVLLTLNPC
In words: Fluorescence spectrometry (tryptophan fluorescence quenching, Stern-Volmer). The following applies: for ΔS (entropy change) / ΔH (enthalpy): Van't Hoff, 298 and 310 K.

Experiment [2] addresses T1, pancreatic lipase. In words: Enzyme inhibition kinetics (Lineweaver-Burk analysis). It counts as biochemical, porcine. The following applies: for inhibition type: Lineweaver-Burk plots, Vmax unchanged; for reversibility of inhibition: plots of v versus enzyme concentration.
Experiment [3] deals with T1, pancreatic lipase. The experiment can be described thus: Circular dichroism measurement of secondary structure. Set-up: species or system porcine. The conditions noted are these: for β-Turn (%) of pancreatic lipase / α-Helix (%) of pancreatic lipase / β-Sheet (%) of pancreatic lipase / Random Coil (%) of pancreatic lipase: lipase:compound molar ratio 1:1, 37 °C, 5 min; for β-Turn (%) of pancreatic lipase: lipase alone 14.8; for α-Helix (%) of pancreatic lipase: lipase alone 17.7; for β-Sheet (%) of pancreatic lipase: lipase alone 25.4; for decrease of β-sheet of pancreatic lipase / increase of α-helix content of pancreatic lipase: relative to pancreatic lipase alone; for Random Coil (%) of pancreatic lipase: lipase alone 42.1.

For experiment [4], the target named is pancreatic lipase. The conditions noted are these: cited from earlier work.
Experiment [5] deals with T1, pancreatic lipase. The experiment can be described thus: Affinity screening by ultrafiltration coupled with HPLC. It counts as binding, porcine. The following applies: from change of HPLC peak area at 425 nm, turmeric extract, versus heat-inactivated enzyme.
Experiment [6] addresses T2, pancreatic lipase from porcine pancreas type II (Sus scrofa, UniProt P00591).
T2 sequence (P00591 1-450): T1 sequence (P00591 1-450)
In words: Pancreatic lipase inhibition in vitro (p-nitrophenyl butyrate hydrolysis, absorbance 410 nm). The following applies: curcuminoid chemical standards. It counts as biochemical.

As to `O=C(/C=C/c1ccc(O)cc1)CC(=O)/C=C/c1ccc(O)cc1` [bisdemethoxycurcumin, Bisdemethoxycurcumin], on pancreatic lipase [1], the “Ka (binding constant), bound stated” value is more than 10000 L/mol; the “binding sites” value is given as approximately 1; the “ΔS (entropy change)” value was −14.33 ± 0.14 J·mol^−1·K. In addition, at pancreatic lipase [1] (298 K), the “Kq (fluorescence-quenching rate constant)” value is given as 1.6 ± 0.07 ×10^12 L·mol^−1·s^−1, the “n (binding sites)” value is on record as 1.13 ± 0.03 and the “ΔG (free energy)” value is -5.476 ± 0.0574 kcal/mol. Besides, the “ΔG (free energy)” value on pancreatic lipase [1] (310 K) was -5.98 ± 0.0359 kcal/mol. Also, on pancreatic lipase [2], the inhibition type entry is given as “competitive inhibitors; also recorded: reversible competitive inhibition” and the reversibility of inhibition result is reported as “reversible”. Further, on pancreatic lipase [3], the “β-Turn (%) of pancreatic lipase” value is 15.9%, the “α-Helix (%) of pancreatic lipase” value came to 21.3%, the “β-Sheet (%) of pancreatic lipase” value turned out to be 21.7% and the “decrease of β-sheet of pancreatic lipase” value amounted to 14.57%.

In the case of `C=C(C)[C@@H]1CC[C@]2(C(=O)O[C@@H]3O[C@H](CO[C@@H]4O[C@H](CO)[C@@H](O[C@@H]5O[C@@H](C)[C@H](O)[C@@H](O)[C@H]5O)[C@H](O)[C@H]4O)[C@@H](O)[C@H](O)[C@H]3O)CC[C@]3(C)[C@H](C[C@H]4OC(=O)C[C@@H](O)[C@]5(C)[C@@H]4[C@@]3(C)CC[C@H]5C(=C)C)[C@@H]12` [chiisanoside], the IC50 on pancreatic lipase [4] was 740 µg/mL (≈ 775 µM).

As to `COc1cc(/C=C/C(=O)CC(=O)/C=C/c2ccc(O)c(OC)c2)ccc1O` [curcumin, Curcumin], on pancreatic lipase [1], the “Ka (binding constant), bound stated” value was more than 10000 L/mol; the “Kq, compared with maximum dynamic quenching constant” value is more than 2e+10 M⁻¹ s⁻¹; the “binding sites” value was approximately 1; the “ΔH (enthalpy)” value is -8.098 ± 0.0717 kcal/mol. Further, at pancreatic lipase [1], the “ΔS (entropy change)” value was −23.99 ± 0.10 J·mol^−1·K. Also, on pancreatic lipase [1] (298 K), the “Kq (fluorescence-quenching rate constant)” value is listed as 1.94 ± 0.10 ×10^12 L·mol^−1·s^−1, the “n (binding sites)” value was determined as 1.14 ± 0.02 and the “ΔG (free energy)” value was -5.762 ± 0.0311 kcal/mol. Also, at pancreatic lipase [1] (310 K), the “Kq (fluorescence-quenching rate constant)” value was 4.28 ± 0.25 ×10^12 L·mol^−1·s^−1, the “n (binding sites)” value is listed as 1.2 ± 0.02 and the “ΔG (free energy)” value was -6.319 ± 0.0598 kcal/mol. For the same compound, at pancreatic lipase [2], the inhibition type entry was “competitive inhibitors; also recorded: reversible competitive inhibition” and the reversibility of inhibition entry is on record as “reversible”. The “binding rate to pancreatic lipase” value at pancreatic lipase [5] is reported as 54.69%. On pancreatic lipase [3], the “β-Turn (%) of pancreatic lipase” value worked out at 15.7%, the “α-Helix (%) of pancreatic lipase” value was found to be 34.3%, the “β-Sheet (%) of pancreatic lipase” value came out at 15.3% and the “Random Coil (%) of pancreatic lipase” value is reported as 34.7%. At pancreatic lipase [3], the “decrease of β-sheet of pancreatic lipase” value was 39.76% and the “increase of α-helix content of pancreatic lipase” value stood at 93.78%.

On to `COc1cc(/C=C/C(O)=C/C(=O)/C=C/c2ccc(O)cc2)ccc1O` [demethoxycurcumin, Demethoxycurcumin], for which, on pancreatic lipase [1], the “Ka (binding constant), bound stated” value is more than 10000 L/mol; the “Kq, compared with maximum dynamic quenching constant” value was more than 2e+10 M⁻¹ s⁻¹; the “binding sites” value is listed as approximately 1; the “ΔH (enthalpy)” value is -7.483 ± 0.0526 kcal/mol. Further, at pancreatic lipase [1], the “ΔS (entropy change)” value is on record as −18.82 ± 0.09 J·mol^−1·K. Also, at pancreatic lipase [1] (298 K), the “Kq (fluorescence-quenching rate constant)” value is 1.64 ± 0.13 ×10^12 L·mol^−1·s^−1, the “n (binding sites)” value amounted to 1.12 ± 0.04 and the “ΔG (free energy)” value is -5.564 ± 0.0335 kcal/mol. Also, on pancreatic lipase [1] (310 K), the “Kq (fluorescence-quenching rate constant)” value was 3.61 ± 0.24 ×10^12 L·mol^−1·s^−1, the “n (binding sites)” value was determined as 1.40 ± 0.01 and the “ΔG (free energy)” value was -6.09 ± 0.0502 kcal/mol. In addition, on pancreatic lipase [1] (excitation 280 nm), the “maximum emission peak of pancreatic lipase after addition (blueshift from 350 nm)” value was 342 nm. Further, on pancreatic lipase [2], the inhibition type entry is given as “competitive inhibitors; also recorded: reversible competitive inhibition” and the reversibility of inhibition entry is “reversible”. Further, the Ki at pancreatic lipase [2] (pancreatic lipase 5 mg/mL, p-nitrophenyl butyrate substrate, read-out: Ki (inhibition constant)) stood at 840 ± 40 µM. At pancreatic lipase [5], the “binding rate to pancreatic lipase” value was determined as 49.33%. In experiment [6], this compound gave an IC50 of 3310 µM. Also, at pancreatic lipase [3], the “β-Turn (%) of pancreatic lipase” value is given as 16.5%, the “α-Helix (%) of pancreatic lipase” value was 26.4%, the “β-Sheet (%) of pancreatic lipase” value is recorded as 16.9% and the “Random Coil (%) of pancreatic lipase” value worked out at 40.2%. For the same compound, on pancreatic lipase [3], the “decrease of β-sheet of pancreatic lipase” value was 33.46% and the “increase of α-helix content of pancreatic lipase” value is given as 49.15%.
